Experiments:
[1] = target: T1, HiBit-BRM fusion protein (Homo sapiens, UniProt P51531); assay: HiBiT-BRM cell-based degradation assay (Nano-Glo HiBiT Lytic Detection); details: stable HeLa cell line expressing HiBiT-BRM, 24 h incubation; for BRM HiBit Degradation Maximum (%): top dose 30 μM; for DC50: read-out: BRM HiBit Degradation IC50
T1 construct: expressed in transfected cells
Summary of the method: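 Luminescence from reconstituted NanoBiT luciferase in lysed HeLa HiBiT-BRM cells served as the measure of remaining BRM after 24 h treatment. Compounds were tested from 30 μM final downward in 3-fold steps. DMSO and 2 μM of a standard BRM/BRG1 degrader defined the scale limits.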

[2] = target: T2, HiBit-BRG1 fusion protein (Homo sapiens, UniProt P51532); assay: HiBiT-BRG1 cell-based degradation assay (Nano-Glo HiBiT Lytic Detection); details: stable HeLa cell line expressing HiBit-BRG1 and LgBit, 24 h incubation; for Dmax: top dose 30 μM, read-out: BRG1 HiBit Degradation Maximum (%); for DC50: read-out: BRMG1 HiBit Degradation IC50
T2 construct: expressed in transfected cells
Summary of the method: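 HeLa cells stably expressing HiBiT-BRG1 and LgBiT treated 24 h with 10-point 3-fold dilutions (top 30 μM, duplicate). Luminescence read after Nano-Glo HiBiT lytic reagent; % degradation relative to DMSO (high control) and 2 μM reference BRM/BRG1 degrader (low control).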

T2 sequence (P51532 whole entry, the tested form may be a part): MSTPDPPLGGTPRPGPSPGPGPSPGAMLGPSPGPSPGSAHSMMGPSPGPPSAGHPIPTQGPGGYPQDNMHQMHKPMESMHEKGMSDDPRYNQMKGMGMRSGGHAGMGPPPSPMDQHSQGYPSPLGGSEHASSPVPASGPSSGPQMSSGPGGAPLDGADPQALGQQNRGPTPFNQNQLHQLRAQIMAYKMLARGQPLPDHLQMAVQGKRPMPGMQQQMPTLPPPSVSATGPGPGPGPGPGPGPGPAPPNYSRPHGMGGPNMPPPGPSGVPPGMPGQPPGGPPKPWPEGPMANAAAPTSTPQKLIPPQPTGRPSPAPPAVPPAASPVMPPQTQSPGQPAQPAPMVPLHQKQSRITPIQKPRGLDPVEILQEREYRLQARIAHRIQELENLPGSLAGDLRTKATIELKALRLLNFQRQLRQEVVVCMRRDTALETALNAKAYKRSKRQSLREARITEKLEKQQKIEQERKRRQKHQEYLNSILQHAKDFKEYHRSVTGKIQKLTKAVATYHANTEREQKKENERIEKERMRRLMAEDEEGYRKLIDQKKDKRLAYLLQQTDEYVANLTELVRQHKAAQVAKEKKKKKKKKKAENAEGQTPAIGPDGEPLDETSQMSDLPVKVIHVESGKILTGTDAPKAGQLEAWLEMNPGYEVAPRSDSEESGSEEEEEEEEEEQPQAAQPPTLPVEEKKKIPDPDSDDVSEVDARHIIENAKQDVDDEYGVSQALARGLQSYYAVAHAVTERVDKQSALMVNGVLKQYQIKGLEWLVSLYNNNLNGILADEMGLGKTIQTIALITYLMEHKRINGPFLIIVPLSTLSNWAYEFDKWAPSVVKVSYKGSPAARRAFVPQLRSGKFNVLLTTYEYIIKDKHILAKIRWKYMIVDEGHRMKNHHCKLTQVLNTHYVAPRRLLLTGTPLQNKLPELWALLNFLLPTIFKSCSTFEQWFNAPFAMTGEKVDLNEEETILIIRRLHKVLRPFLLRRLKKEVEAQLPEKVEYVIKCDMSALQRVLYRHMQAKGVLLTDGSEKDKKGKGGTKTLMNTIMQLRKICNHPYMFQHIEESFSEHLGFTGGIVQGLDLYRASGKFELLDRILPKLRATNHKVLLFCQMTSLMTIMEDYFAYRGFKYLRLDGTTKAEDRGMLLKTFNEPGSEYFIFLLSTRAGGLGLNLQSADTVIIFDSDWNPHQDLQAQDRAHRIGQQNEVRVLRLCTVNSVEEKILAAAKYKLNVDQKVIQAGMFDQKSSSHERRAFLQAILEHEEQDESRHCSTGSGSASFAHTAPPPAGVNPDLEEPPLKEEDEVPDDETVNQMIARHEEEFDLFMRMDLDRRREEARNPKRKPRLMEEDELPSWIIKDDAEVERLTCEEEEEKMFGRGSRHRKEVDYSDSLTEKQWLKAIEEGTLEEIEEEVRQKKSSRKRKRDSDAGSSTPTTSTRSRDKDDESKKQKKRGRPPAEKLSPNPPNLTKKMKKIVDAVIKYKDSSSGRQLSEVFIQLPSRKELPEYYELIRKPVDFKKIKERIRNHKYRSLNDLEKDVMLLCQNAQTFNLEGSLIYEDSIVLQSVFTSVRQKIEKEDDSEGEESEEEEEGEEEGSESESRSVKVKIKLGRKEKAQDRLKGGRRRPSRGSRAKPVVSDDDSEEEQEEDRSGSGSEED
T1 sequence (P51531 whole entry, the tested form may be a part): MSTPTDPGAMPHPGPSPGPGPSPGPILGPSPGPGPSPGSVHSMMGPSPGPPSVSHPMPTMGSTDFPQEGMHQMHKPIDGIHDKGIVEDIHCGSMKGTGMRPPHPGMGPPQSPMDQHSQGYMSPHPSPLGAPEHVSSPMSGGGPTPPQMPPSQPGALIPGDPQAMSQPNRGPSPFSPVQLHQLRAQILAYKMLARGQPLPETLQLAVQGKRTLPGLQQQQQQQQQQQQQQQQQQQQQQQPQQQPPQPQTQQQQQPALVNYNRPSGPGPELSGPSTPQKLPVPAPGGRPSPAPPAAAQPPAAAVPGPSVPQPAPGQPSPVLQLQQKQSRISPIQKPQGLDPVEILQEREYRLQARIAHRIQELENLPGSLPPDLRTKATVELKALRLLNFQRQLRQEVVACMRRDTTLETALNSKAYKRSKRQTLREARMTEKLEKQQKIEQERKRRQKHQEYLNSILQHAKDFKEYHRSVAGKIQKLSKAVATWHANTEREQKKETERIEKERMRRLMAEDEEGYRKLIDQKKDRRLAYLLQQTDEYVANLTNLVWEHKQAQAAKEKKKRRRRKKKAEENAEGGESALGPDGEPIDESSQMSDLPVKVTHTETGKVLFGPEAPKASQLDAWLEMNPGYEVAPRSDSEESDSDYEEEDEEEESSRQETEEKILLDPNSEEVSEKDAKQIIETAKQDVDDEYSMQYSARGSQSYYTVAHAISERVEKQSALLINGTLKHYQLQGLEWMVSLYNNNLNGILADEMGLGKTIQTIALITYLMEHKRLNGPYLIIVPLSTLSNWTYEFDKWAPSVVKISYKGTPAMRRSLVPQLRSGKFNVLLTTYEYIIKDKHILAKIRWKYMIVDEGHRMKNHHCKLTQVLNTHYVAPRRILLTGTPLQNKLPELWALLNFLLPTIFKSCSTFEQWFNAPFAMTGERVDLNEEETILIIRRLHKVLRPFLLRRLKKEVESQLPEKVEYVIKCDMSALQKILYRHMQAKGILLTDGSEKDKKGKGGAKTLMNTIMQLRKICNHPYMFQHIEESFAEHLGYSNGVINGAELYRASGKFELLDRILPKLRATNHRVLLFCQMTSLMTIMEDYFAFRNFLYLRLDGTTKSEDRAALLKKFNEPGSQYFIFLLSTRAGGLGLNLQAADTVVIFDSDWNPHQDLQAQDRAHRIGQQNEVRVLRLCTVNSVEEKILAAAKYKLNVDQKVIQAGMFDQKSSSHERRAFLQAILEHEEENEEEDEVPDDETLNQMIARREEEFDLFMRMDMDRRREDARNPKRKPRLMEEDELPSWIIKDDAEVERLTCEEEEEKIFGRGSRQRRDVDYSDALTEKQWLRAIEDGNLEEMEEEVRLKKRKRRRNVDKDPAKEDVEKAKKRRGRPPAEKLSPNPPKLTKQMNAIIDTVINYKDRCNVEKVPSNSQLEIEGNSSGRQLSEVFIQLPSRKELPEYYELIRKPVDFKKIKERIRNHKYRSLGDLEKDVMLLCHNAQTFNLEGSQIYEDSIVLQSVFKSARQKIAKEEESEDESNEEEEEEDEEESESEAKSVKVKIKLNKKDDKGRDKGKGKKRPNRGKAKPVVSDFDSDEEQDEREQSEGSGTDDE

DC50 [1] [µM]	Dmax [2] [%]	DC50 [2] [µM]	Compound	BRM HiBit Degradation Maximum (%) [1]
≥ 0.01	≥ 50	≥ 0.1	Cc1ncsc1-c1ccc([C@H](C)NC(=O)[C@@H]2C[C@@H](O)CN2C(=O)[C@@H](c2cc(OCCN3C[C@H]4C[C@@H]3C[C@H]4c3sc4nnc(-c5ccccc5O)cc4c3C)no2)C(C)C)cc1 [Compound 60, (2S,4R)-4-hydroxy-1-((R)-2-(3-(2-((1R,4S,5R)-5-(3-(2-hydroxyphenyl)-5-methylthieno[2,3-c]pyridazin-6-yl)-2-azabicyclo[2.2.1]heptan-2-yl)ethoxy)isoxazol-5-yl)-3-methylbutanoyl)-N-((S)-1-(4-(4-methylthiazol-5-yl)phenyl)ethyl)pyrrolidine-2-carboxamide]	A (“A” indicates maximum degradation ≥ 75%)
≥ 0.1	< 50	≥ 1	Cc1ncsc1-c1ccc([C@H](C)NC(=O)[C@@H]2C[C@@H](O)CN2C(=O)[C@@H](c2cc(C3CCN(C(=O)CN4CC(c5cc6cc(-c7ccccc7O)nnc6s5)C4)CC3)no2)C(C)C)cc1 [Compound 13]	B (“B” indicates maximum degradation ≥ 50%)
≥ 1	< 50	≥ 1	Cc1ncsc1-c1ccc(CNC(=O)[C@H]2C[C@H](O)CN2C(=O)[C@H](NC(=O)CCN2CC(c3sc4nnc(-c5ccccc5O)cc4c3C)C2)C(C)(C)C)cc1 [Compound 17]	C (“C” indicates maximum degradation < 50%)
< 0.01	≥ 75	< 0.01	Cc1ncsc1-c1ccc([C@H](C)NC(=O)[C@@H]2C[C@@H](O)CN2C(=O)[C@@H](c2cc(C34CC(C(=O)N5CCC(c6sc7nnc(-c8ccccc8O)cc7c6C)CC5)(C3)C4)no2)C(C)C)cc1 [Compound 64, (2S,4R)-4-hydroxy-1-((R)-2-(3-(3-(4-(3-(2-hydroxyphenyl)-5-methylthieno[2,3-c]pyridazin-6-yl)piperidine-1-carbonyl)bicyclo[1.1.1]pentan-1-yl)isoxazol-5-yl)-3-methylbutanoyl)-N-((S)-1-(4-(4-methylthiazol-5-yl)phenyl)ethyl)pyrrolidine-2-carboxamide]	A (“A” indicates maximum degradation ≥ 75%)
≥ 0.01	< 50	≥ 1	Cc1ncsc1-c1ccc([C@@H](C)NC(=O)[C@H]2C[C@H](O)CN2C(=O)[C@H](c2cc(OCCN3C[C@@H]4[C@H](C3)[C@H]4c3sc4nnc(-c5ccccc5O)cc4c3C)no2)C(C)C)cc1 [Compound 15]	A (“A” indicates maximum degradation ≥ 75%)
≥ 1	< 50	≥ 1	Cc1ncsc1-c1ccc([C@H](C)NC(=O)[C@@H]2C[C@@H](O)CN2C(=O)[C@@H](c2cc(OCCCN3CCc4sc5nnc(-c6ccccc6O)cc5c4C3)no2)C(C)C)cc1 [Compound 69, (2S,4R)-4-hydroxy-1-((R)-2-(3-(3-(3-(2-hydroxyphenyl)-7,8-dihydropyrido[3′,4′:4,5]thieno[2,3-c]pyridazin-6(5H)-yl)propoxy)isoxazol-5-yl)-3-methylbutanoyl)-N-((S)-1-(4-(4-methylthiazol-5-yl)phenyl)ethyl)pyrrolidine-2-carboxamide]	C (“C” indicates maximum degradation < 50%)
≥ 1	≥ 50	≥ 1	Cc1ncsc1-c1ccc([C@H](C)NC(=O)[C@@H]2C[C@@H](O)CN2C(=O)[C@@H](c2cc(N3CCC(CN4CCc5sc6nnc(-c7ccccc7O)cc6c5C4)CC3)no2)C(C)C)cc1 [Compound 92, (2S,4R)-4-hydroxy-1-((R)-2-(3-(4-((3-(2-hydroxyphenyl)-7,8-dihydropyrido[3′,4′:4,5]thieno[2,3-c]pyridazin-6(5H)-yl)methyl)piperidin-1-yl)isoxazol-5-yl)-3-methylbutanoyl)-N-((S)-1-(4-(4-methylthiazol-5-yl)phenyl)ethyl)pyrrolidine-2-carboxamide]	C (“C” indicates maximum degradation < 50%)
≥ 1	< 50	≥ 1	Cc1ncsc1-c1ccc(CNC(=O)[C@@H]2C[C@@H](O)CN2C(=O)[C@@H](NC(=O)CCN2CC(c3cc4cc(-c5ccccc5O)nnc4s3)C2)C(C)(C)C)cc1 [Compound 26]	C (“C” indicates maximum degradation < 50%)
≥ 1	< 50	≥ 1	Cc1ncsc1-c1ccc(CNC(=O)[C@@H]2C[C@@H](O)CN2C(=O)[C@@H](NC(=O)CCCC(=O)N2CCC(c3cc4cc(-c5ccccc5O)nnc4s3)CC2)C(C)(C)C)cc1 [Compound 28]	B (“B” indicates maximum degradation ≥ 50%)
≥ 0.01	< 50	≥ 1	Cc1ncsc1-c1ccc([C@H](C)NC(=O)[C@@H]2C[C@@H](O)CN2C(=O)[C@@H](c2cc(OCCN3CCC(N4CC(c5sc6nnc(-c7ccccc7O)cc6c5C)C4)CC3)no2)C(C)C)cc1 [Compound 100, (2S,4R)-4-hydroxy-1-((R)-2-(3-(2-(4-(3-(3-(2-hydroxyphenyl)-5-methylthieno[2,3-c]pyridazin-6-yl)azetidin-1-yl)piperidin-1-yl)ethoxy)isoxazol-5-yl)-3-methylbutanoyl)-N-((S)-1-(4-(4-methylthiazol-5-yl)phenyl)ethyl)pyrrolidine-2-carboxamide]	A (“A” indicates maximum degradation ≥ 75%)
≥ 1	< 50	≥ 1	Cc1ncsc1-c1ccc(CNC(=O)[C@@H]2C[C@@H](O)CN2C(=O)[C@@H](NC(=O)CCC(=O)N2CC(c3cc4cc(-c5ccccc5O)nnc4s3)C2)C(C)(C)C)cc1 [Compound 25]	C (“C” indicates maximum degradation < 50%)
≥ 0.01	≥ 50	≥ 0.01	Cc1ncsc1-c1ccc([C@H](C)NC(=O)[C@@H]2C[C@@H](O)CN2C(=O)[C@@H](c2cc(OCCN3CC(c4sc5nnc(-c6ccccc6O)cc5c4C)C3)no2)C(C)C)cc1 [Compound 22]	A (“A” indicates maximum degradation ≥ 75%)
< 0.01	< 50	≥ 1	Cc1ncsc1-c1ccc([C@H](C)NC(=O)[C@@H]2C[C@@H](O)CN2C(=O)[C@@H](c2cc(N3CCC(N4CCC(c5cc6nnc(-c7ccccc7O)cc6s5)CC4)CC3)no2)C(C)C)cc1 [Compound 87, (2S,4R)-4-hydroxy-1-((R)-2-(3-(4-(3-(2-hydroxyphenyl)thieno[3,2-c]pyridazin-6-yl)-[1,4′-bipiperidin]-1′-yl)isoxazol-5-yl)-3-methylbutanoyl)-N-((S)-1-(4-(4-methylthiazol-5-yl)phenyl)ethyl)pyrrolidine-2-carboxamide]	A (“A” indicates maximum degradation ≥ 75%)

— patent US20240376121A1, “COMPOUNDS AND USES THEREOF” (Foghorn Therapeutics Inc., priority 2021, published 2024)
